# Active and inactive are the calls of the source. The calls are words filed in the database; no cut-off is given here.
# Experiments:
# K562 = assay: cells; settings: Homo sapiens, K562, 72 h
# Description: Antiproliferative activity against human K562 cells after 72 hrs by MTT assay
# [1] = target: Cyclin-dependent kinase 2/cyclin A (Homo sapiens) (UniProt P24941+P20248+P78396); assay: Inhibition of CDK2/cyclin A at 10 uM by IMAP assay; format: protein-complex assay
# Huh-7 = assay: Antiproliferative activity against human HuH7 cells after 72 hrs by MTT assay; format: functional, cell-based; settings: Huh-7, 72 h
# HL-60 = assay: Antiproliferative activity against human HL60 cells after 5 days by MTT assay; format: functional, cell-based; settings: HL-60, 120 h
# [2] = Antiproliferative activity against human IMR90 cells after 72 hrs by MTT assay; format: cell-based; settings: IMR-90, 72 h
# HCT-116 = assay: cells; settings: Homo sapiens, HCT-116, 72 h
# Description: Antiproliferative activity against human HCT116 cells after 72 hrs by MTT assay
# [3] = target: ALK tyrosine kinase receptor (Homo sapiens) (UniProt Q9UM73); assay: Inhibition of ALK at 10 uM
# [4] = target: Tyrosine-protein kinase BTK (Homo sapiens) (UniProt Q06187); assay: Inhibition of BTK at 10 uM
# [5] = target: TGF-beta receptor type-1 (Homo sapiens) (UniProt P36897); assay: Inhibition of TGFBR1 at 10 uM
# [6] = target: Dual specificity mitogen-activated protein kinase kinase 2 (Homo sapiens) (UniProt P36507); assay: Inhibition of MEK2 at 10 uM
# [7] = target: Serine/threonine-protein kinase Chk1 (Homo sapiens) (UniProt O14757); assay: Inhibition of CHEK1 at 10 uM
# [8] = target: Cyclin-dependent kinase 7 (Homo sapiens) (UniProt P50613); assay: Inhibition of CDK7 at 10 uM
# [9] = target: Platelet-derived growth factor receptor alpha (Homo sapiens) (UniProt P16234); assay: Inhibition of PDGFRA at 10 uM
# [10] = target: SRSF protein kinase 3 (Homo sapiens) (UniProt Q9UPE1); assay: Inhibition of SRPK3 at 10 uM
# Chain of SRSF protein kinase 3 (Homo sapiens) (Q9UPE1 whole entry): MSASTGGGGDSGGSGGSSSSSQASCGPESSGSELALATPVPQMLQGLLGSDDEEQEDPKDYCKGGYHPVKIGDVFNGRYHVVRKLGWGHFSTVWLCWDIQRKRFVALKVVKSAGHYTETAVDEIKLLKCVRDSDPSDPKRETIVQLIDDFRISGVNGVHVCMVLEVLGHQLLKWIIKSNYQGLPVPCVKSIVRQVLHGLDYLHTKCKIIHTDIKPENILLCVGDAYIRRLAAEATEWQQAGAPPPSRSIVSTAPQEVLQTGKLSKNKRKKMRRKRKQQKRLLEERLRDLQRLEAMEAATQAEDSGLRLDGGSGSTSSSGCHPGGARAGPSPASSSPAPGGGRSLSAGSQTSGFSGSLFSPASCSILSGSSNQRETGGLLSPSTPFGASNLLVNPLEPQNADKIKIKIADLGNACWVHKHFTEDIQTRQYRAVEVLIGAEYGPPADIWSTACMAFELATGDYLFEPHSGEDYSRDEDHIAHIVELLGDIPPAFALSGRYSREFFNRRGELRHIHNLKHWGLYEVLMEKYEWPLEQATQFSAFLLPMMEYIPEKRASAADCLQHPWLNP
# [11] = target: Cyclin-dependent kinase 9 (Homo sapiens) (UniProt P50750); assay: Inhibition of CDK9 at 10 uM
# [12] = target: Mast/stem cell growth factor receptor Kit (Homo sapiens) (UniProt P10721); assay: Inhibition of KIT at 10 uM
# [13] = target: Tyrosine-protein kinase JAK2 (Homo sapiens) (UniProt O60674); assay: Inhibition of JAK2 at 10 uM
# [14] = target: Proto-oncogene tyrosine-protein kinase Src (Homo sapiens) (UniProt P12931); assay: Inhibition of SRC at 10 uM
# [15] = target: Angiopoietin-1 receptor (Homo sapiens) (UniProt Q02763); assay: Inhibition of TIE2 at 10 uM
# [16] = target: RAF proto-oncogene serine/threonine-protein kinase (Homo sapiens) (UniProt P04049); assay: Inhibition of RAF1 at 10 uM
# [17] = target: Dual specificity tyrosine-phosphorylation-regulated kinase 1B (Homo sapiens) (UniProt Q9Y463); assay: Inhibition of DYRK1B at 10 uM
# [18] = target: Serine/threonine-protein kinase PLK4 (Homo sapiens) (UniProt O00444); assay: Inhibition of PLK4 at 10 uM
# [19] = target: Hepatocyte growth factor receptor (Homo sapiens) (UniProt P08581); assay: Inhibition of MET at 10 uM
# [20] = target: Epidermal growth factor receptor (Homo sapiens) (UniProt P00533); assay: Inhibition of EGFR at 10 uM
# [21] = target: Cyclin-dependent kinase 2 (Homo sapiens) (UniProt P24941); assay: Inhibition of CDK2 at 10 uM
# [22] = target: Insulin receptor (Homo sapiens) (UniProt P06213); assay: Inhibition of INSR at 10 uM
# [23] = target: Serine/threonine-protein kinase pim-1 (Homo sapiens) (UniProt P11309); assay: Inhibition of PIM1 at 10 uM
# [24] = target: Fibroblast growth factor receptor 2 (Homo sapiens) (UniProt P21802); assay: Inhibition of FGFR2 at 10 uM
# [25] = target: Non-receptor tyrosine-protein kinase TYK2 (Homo sapiens) (UniProt P29597); assay: Inhibition of TYK2 at 10 uM
# [26] = target: Dual specificity mitogen-activated protein kinase kinase 1 (Homo sapiens) (UniProt Q02750); assay: Inhibition of MEK1 at 10 uM
# Chain of Dual specificity mitogen-activated protein kinase kinase 1 (Homo sapiens) (Q02750 whole entry): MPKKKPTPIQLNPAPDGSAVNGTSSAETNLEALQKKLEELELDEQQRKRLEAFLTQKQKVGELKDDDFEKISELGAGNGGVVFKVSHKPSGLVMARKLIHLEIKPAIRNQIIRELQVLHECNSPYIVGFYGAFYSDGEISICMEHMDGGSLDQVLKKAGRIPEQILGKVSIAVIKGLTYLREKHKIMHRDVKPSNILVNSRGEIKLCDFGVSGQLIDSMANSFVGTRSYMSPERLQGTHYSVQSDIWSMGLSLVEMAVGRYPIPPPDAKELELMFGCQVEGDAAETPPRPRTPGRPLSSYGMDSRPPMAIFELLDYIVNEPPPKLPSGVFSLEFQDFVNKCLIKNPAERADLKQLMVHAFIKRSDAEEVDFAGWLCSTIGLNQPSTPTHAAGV
# [27] = target: Mitogen-activated protein kinase 11 (Homo sapiens) (UniProt Q15759); assay: Inhibition of p38beta at 10 uM
# [28] = target: Cyclin-dependent kinase 3 (Homo sapiens) (UniProt Q00526); assay: Inhibition of CDK3 at 10 uM
# [29] = target: Fibroblast growth factor receptor 3 (Homo sapiens) (UniProt P22607); assay: Inhibition of FGFR3 at 10 uM
# [30] = target: Macrophage colony-stimulating factor 1 receptor (Homo sapiens) (UniProt P07333); assay: Inhibition of CSF1R at 10 uM
# Chain of Macrophage colony-stimulating factor 1 receptor (Homo sapiens) (P07333 whole entry): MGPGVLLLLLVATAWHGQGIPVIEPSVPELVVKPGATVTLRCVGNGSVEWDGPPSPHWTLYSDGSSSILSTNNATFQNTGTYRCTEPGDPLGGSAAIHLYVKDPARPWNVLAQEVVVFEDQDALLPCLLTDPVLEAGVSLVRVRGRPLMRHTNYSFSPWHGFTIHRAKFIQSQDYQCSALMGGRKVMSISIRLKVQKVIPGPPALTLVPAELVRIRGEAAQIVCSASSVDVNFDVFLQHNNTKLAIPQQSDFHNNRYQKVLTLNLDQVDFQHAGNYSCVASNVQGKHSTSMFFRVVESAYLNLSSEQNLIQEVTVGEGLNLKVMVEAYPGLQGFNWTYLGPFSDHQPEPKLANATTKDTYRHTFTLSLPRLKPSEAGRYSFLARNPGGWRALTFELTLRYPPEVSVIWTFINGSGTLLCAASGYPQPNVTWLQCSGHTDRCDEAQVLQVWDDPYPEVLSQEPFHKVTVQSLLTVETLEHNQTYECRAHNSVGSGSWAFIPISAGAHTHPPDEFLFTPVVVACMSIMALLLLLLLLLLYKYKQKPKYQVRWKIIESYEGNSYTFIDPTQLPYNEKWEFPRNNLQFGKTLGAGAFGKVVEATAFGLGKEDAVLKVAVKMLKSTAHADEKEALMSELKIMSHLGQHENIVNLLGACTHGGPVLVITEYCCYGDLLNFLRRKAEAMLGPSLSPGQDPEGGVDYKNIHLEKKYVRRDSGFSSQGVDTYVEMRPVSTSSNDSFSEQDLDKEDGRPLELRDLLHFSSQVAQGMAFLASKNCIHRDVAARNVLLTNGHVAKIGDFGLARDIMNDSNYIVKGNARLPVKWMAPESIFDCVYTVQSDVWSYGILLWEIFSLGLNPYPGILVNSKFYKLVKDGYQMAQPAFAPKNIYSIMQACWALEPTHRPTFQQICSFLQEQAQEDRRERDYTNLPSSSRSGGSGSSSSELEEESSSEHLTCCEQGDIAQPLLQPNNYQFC
# [31] = target: Insulin-like growth factor 1 receptor (Homo sapiens) (UniProt P08069); assay: Inhibition of IGF1R at 10 uM
# [32] = target: Serine/threonine-protein kinase B-raf (Homo sapiens) (UniProt P15056); assay: Inhibition of BRAF at 10 uM
# [33] = target: Mitogen-activated protein kinase 3 (Homo sapiens) (UniProt P27361); assay: Inhibition of ERK1 at 10 uM
# Chain of Mitogen-activated protein kinase 3 (Homo sapiens) (P27361 whole entry): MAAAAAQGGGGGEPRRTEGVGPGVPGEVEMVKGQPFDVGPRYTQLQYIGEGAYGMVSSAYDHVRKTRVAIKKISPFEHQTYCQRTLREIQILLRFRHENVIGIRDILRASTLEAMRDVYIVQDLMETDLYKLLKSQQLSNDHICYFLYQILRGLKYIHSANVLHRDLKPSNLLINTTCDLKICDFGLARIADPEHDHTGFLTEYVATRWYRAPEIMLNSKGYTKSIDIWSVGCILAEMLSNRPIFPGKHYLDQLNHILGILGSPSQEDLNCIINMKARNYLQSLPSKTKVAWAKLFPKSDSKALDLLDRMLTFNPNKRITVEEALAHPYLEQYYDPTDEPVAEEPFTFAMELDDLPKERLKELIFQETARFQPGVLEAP
# [34] = target: Serine/threonine-protein kinase pim-2 (Homo sapiens) (UniProt Q9P1W9); assay: Inhibition of PIM2 at 10 uM
# [35] = target: Receptor tyrosine-protein kinase erbB-2 (Homo sapiens) (UniProt P04626); assay: Inhibition of ERBB2 at 10 uM
# [36] = target: Mitogen-activated protein kinase 14 (Homo sapiens) (UniProt Q16539); assay: Inhibition of p38alpha at 10 uM
# [37] = target: cAMP-dependent protein kinase catalytic subunit alpha (Homo sapiens) (UniProt P17612); assay: Inhibition of PKACalpha at 10 uM
# [38] = target: Receptor tyrosine-protein kinase erbB-4 (Homo sapiens) (UniProt Q15303); assay: Inhibition of ERBB4 at 10 uM
# Chain of Receptor tyrosine-protein kinase erbB-4 (Homo sapiens) (Q15303 whole entry): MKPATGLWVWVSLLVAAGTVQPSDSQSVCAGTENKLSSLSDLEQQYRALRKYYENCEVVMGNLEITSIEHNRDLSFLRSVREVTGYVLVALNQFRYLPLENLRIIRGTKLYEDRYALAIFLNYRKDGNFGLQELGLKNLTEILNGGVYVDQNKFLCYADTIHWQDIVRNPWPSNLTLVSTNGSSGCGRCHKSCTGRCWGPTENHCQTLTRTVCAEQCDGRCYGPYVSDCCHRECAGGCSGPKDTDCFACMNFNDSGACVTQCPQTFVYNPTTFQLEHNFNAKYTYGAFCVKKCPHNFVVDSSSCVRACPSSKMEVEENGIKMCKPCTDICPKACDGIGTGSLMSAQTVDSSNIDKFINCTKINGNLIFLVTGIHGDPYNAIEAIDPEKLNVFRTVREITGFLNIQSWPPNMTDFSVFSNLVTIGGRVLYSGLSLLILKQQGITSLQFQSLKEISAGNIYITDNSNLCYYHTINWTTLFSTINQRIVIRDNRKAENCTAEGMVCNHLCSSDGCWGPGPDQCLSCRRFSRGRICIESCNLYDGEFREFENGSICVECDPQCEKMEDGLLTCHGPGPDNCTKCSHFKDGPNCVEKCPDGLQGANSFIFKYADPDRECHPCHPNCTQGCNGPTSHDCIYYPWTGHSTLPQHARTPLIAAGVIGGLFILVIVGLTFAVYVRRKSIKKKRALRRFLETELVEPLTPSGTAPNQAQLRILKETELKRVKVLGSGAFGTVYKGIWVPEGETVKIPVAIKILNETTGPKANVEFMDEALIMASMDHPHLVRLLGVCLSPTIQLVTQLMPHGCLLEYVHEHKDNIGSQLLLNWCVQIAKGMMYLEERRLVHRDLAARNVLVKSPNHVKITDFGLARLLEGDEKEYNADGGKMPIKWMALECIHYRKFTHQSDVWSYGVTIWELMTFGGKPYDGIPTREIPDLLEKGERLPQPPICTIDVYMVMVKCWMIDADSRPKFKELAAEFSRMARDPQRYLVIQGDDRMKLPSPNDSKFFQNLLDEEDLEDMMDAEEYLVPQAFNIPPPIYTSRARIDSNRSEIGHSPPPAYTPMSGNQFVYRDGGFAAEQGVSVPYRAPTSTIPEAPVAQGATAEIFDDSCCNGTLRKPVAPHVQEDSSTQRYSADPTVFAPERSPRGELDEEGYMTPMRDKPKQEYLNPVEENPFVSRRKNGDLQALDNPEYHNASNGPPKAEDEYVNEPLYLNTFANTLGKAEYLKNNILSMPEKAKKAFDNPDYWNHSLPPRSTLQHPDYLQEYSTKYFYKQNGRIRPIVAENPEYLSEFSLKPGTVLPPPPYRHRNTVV
# [39] = target: Platelet-derived growth factor receptor beta (Homo sapiens) (UniProt P09619); assay: Inhibition of PDGFRB at 10 uM
# [40] = target: Phosphatidylinositol 4,5-bisphosphate 3-kinase catalytic subunit gamma isoform (Homo sapiens) (UniProt P48736); assay: Inhibition of PIK3CG at 10 uM
# Chain of Phosphatidylinositol 4,5-bisphosphate 3-kinase catalytic subunit gamma isoform (Homo sapiens) (P48736 whole entry, looked up, canonical isoform): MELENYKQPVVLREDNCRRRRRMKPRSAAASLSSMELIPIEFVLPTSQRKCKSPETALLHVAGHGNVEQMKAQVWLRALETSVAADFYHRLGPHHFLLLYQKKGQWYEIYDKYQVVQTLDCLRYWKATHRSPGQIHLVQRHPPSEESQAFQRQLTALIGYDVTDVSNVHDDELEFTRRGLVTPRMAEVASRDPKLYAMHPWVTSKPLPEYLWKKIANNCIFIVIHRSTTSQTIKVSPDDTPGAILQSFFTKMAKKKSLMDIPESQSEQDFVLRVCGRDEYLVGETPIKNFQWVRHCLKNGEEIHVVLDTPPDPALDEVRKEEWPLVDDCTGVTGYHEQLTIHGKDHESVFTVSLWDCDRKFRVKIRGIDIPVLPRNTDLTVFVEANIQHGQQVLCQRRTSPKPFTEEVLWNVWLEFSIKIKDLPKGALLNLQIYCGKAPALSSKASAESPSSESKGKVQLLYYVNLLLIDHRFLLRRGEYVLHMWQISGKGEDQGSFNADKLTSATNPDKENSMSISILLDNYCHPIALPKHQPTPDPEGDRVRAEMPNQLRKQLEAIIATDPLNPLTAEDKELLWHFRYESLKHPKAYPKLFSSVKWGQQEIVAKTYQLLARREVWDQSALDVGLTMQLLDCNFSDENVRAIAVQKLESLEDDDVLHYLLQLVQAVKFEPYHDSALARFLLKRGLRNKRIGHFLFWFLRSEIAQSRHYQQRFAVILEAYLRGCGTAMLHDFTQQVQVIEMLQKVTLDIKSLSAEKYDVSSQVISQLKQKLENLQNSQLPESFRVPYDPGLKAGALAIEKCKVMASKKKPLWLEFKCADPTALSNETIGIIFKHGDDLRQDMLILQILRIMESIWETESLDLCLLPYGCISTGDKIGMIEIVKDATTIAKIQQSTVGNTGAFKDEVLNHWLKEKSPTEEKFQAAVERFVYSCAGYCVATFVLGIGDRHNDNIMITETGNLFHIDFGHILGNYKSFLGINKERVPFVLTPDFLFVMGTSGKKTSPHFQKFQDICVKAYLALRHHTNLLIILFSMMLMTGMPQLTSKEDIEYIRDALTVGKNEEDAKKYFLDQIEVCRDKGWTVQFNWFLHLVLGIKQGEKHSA
# [41] = target: Glycogen synthase kinase-3 beta (Homo sapiens) (UniProt P49841); assay: Inhibition of GSK3-beta at 10 uM
# [42] = target: Tyrosine-protein kinase ABL1 (Homo sapiens) (UniProt P00519); assay: Inhibition of ABL1 at 10 uM
# [43] = target: Atypical kinase COQ8A, mitochondrial (Homo sapiens) (UniProt Q8NI60); assay: Inhibition of ADCK3 at 10 uM
# [44] = target: Serine/threonine-protein kinase pim-3 (Homo sapiens) (UniProt Q86V86); assay: Inhibition of PIM3 at 10 uM
# [45] = target: Receptor-type tyrosine-protein kinase FLT3 (Homo sapiens) (UniProt P36888); assay: Inhibition of FLT3 at 10 uM
# [46] = target: Casein kinase I isoform gamma-2 (Homo sapiens) (UniProt P78368); assay: Inhibition of CSNK1G2 at 10 uM
compound,measurement,setting,value
O=C1Nc2ccccc2/C1=C1\C(=O)N(CCc2ccc(O)cc2)c2ccccc21,IC50,K562,> 30 µM
same,inhibition,[1],inactive
same,IC50,Huh-7,19.9 µM
same,IC50,HL-60,> 30 µM
same,IC50,[2],> 30 µM
same,IC50,HCT-116,> 30 µM
O=C1Nc2ccccc2/C1=C1\C(=O)N(CCc2ccc([N+](=O)[O-])cc2)c2ccccc21,IC50,K562,> 30 µM
same,inhibition,[1],inactive
same,IC50,Huh-7,13.3 µM
same,IC50,HL-60,> 30 µM
same,IC50,[2],7.5 µM
same,IC50,HCT-116,> 30 µM
Cc1ccc(CCN2C(=O)/C(=C3/C(=O)Nc4ccccc43)c3ccccc32)cc1,IC50,K562,> 30 µM
same,inhibition,[1],inactive
same,IC50,Huh-7,19 µM
same,IC50,HL-60,> 30 µM
same,IC50,[2],> 30 µM
same,IC50,HCT-116,> 30 µM
O=C1Nc2ccccc2/C1=C1\C(=O)Nc2ccccc21 [ISOINDIGO],IC50,K562,6.7 µM
same,inhibition,[1],inactive
same,IC50,Huh-7,28.9 µM
same,IC50,HL-60,16.6 µM
same,IC50,[2],16.3 µM
same,IC50,HCT-116,> 30 µM
CC(=O)Nc1ccc(CCN2C(=O)/C(=C3/C(=O)Nc4ccccc43)c3ccccc32)cc1,IC50,K562,> 30 µM
same,inhibition,[1],inactive
same,IC50,Huh-7,13.3 µM
same,IC50,HL-60,> 30 µM
same,IC50,[2],19.5 µM
same,IC50,HCT-116,> 30 µM
CN1C(=O)/C(=C2/C(=O)N(C)c3ccccc32)c2ccccc21,inhibition,[1],inactive
O=C1Nc2ccccc2C1C1C(=O)Nc2ccccc21 (configuration not stated),inhibition,[1],inactive
O=C1Nc2ccccc2/C1=C1\C(=O)N(c2ccccc2)c2ccccc21,inhibition,[1],inactive
CN1C(=O)/C(=C2/C(=O)Nc3ccccc32)c2ccccc21 [MEISOINDIGO],inhibition,[3],0%
same,inhibition,[4],0%
same,inhibition,[5],0%
same,inhibition,[6],0%
same,inhibition,[7],0%
same,IC50,K562,6.7 µM
same,inhibition,[8],56%
same,inhibition,[9],0%
same,inhibition,[10],0%
same,inhibition,[11],0%
same,inhibition,[12],8%
same,inhibition,[13],4%
same,inhibition,[14],15%
same,inhibition,[15],6%
same,inhibition,[16],0%
same,inhibition,[17],0%
same,inhibition,[18],12%
same,inhibition,[19],0%
same,inhibition,[20],16%
same,inhibition,[1],inactive
same,inhibition,[21],4%
same,inhibition,[22],10%
same,inhibition,[23],3%
same,IC50,Huh-7,18.3 µM
same,IC50,HL-60,12.2 µM
same,inhibition,[24],0%
same,inhibition,[25],8%
same,inhibition,[26],16%
same,inhibition,[27],0%
same,inhibition,[28],0%
same,inhibition,[29],4%
same,inhibition,[30],0%
same,inhibition,[31],13%
same,inhibition,[32],0%
same,inhibition,[33],0%
same,inhibition,[34],2%
same,inhibition,[35],0%
same,inhibition,[36],0%
same,inhibition,[37],0%
same,inhibition,[38],0%
same,inhibition,[39],15%
same,inhibition,[40],0%
same,inhibition,[41],16%
same,inhibition,[42],11%
same,inhibition,[43],0%
same,inhibition,[44],7%
same,IC50,[2],7.7 µM
same,IC50,HCT-116,15.4 µM
same,inhibition,[45],0%
same,inhibition,[46],0%
COc1ccc(CCN2C(=O)/C(=C3/C(=O)Nc4ccccc43)c3ccccc32)cc1,IC50,K562,1.4 µM
same,inhibition,[1],inactive
same,IC50,Huh-7,7.5 µM
same,IC50,HL-60,12 µM
same,IC50,[2],5.4 µM
same,IC50,HCT-116,11.6 µM
O=C1Nc2ccccc2/C1=C1\C(=O)N(Cc2ccccc2)c2ccccc21,inhibition,[1],inactive
O=C1Nc2ccccc2/C1=C1\C(=O)N(CCCc2ccccc2)c2ccccc21,inhibition,[3],0%
same,inhibition,[4],13%
same,inhibition,[5],0%
same,inhibition,[6],9%
same,inhibition,[7],35%
same,inhibition,[8],28%
same,inhibition,[9],0%
same,inhibition,[10],7%
same,inhibition,[11],0%
same,inhibition,[12],49%
same,inhibition,[13],25%
same,inhibition,[14],15%
same,inhibition,[15],0%
same,inhibition,[16],9%
same,inhibition,[17],0%
same,inhibition,[18],39%
same,inhibition,[19],0%
same,inhibition,[20],0%
same,inhibition,[1],inactive
same,inhibition,[21],0%
same,inhibition,[22],0%
same,inhibition,[23],0%
same,inhibition,[24],42%
same,inhibition,[25],0%
same,inhibition,[26],0%
same,inhibition,[27],32%
same,inhibition,[28],0%
same,inhibition,[29],32%
same,inhibition,[30],11%
same,inhibition,[31],20%
same,inhibition,[32],0%
same,inhibition,[33],18%
same,inhibition,[34],23%
same,inhibition,[35],3%
same,inhibition,[36],4%
same,inhibition,[37],12%
same,inhibition,[38],16%
same,inhibition,[39],49%
same,inhibition,[40],19%
same,inhibition,[41],5%
same,inhibition,[42],46%
same,inhibition,[43],45%
same,inhibition,[44],0%
same,inhibition,[45],0%
same,inhibition,[46],0%
O=Nc1c(-c2c(O)[nH]c3ccccc23)[nH]c2ccccc12 [INDIRUBIN-3-MONOXIME],IC50,K562,> 30 µM
same,inhibition,[1],70%
same,IC50,HL-60,15.7 µM
same,IC50,[2],18.2 µM
same,IC50,HCT-116,12 µM
O=C1Nc2cc(Br)ccc2/C1=C1/Nc2ccccc2/C1=N\O,inhibition,[1],70%
O=C1Nc2ccccc2/C1=C1\C(=O)N(CCc2ccccc2)c2ccccc21,IC50,K562,7.3 µM
same,inhibition,[1],inactive
same,IC50,Huh-7,12 µM
same,IC50,HL-60,11.9 µM
same,IC50,[2],6.8 µM
same,IC50,HCT-116,12.2 µM
